Publication PMC10094510, “Novel Cannabinoid Receptor 2 (CB2) Low Lipophilicity Agonists Produce Distinct cAMP and Arrestin Signalling Kinetics without Bias” (International Journal of Molecular Sciences, 2023)
Where two headings read alike, the source gives them in different places.

Assays:
[1] = biological target: T1, human CB2 (Homo sapiens, UniProt P34972, Q63R); assay: Competition radioligand binding assay ([3H]-CP55,940), hCB2 membranes; details: for CB2/CB1 Selectivity: CB2 selectivity relative to CB1, from Ki (or Kd); for displacement of [3H]-CP55,940 from CB2: full displacement = ≥ 75% relative to 1 µM CP55,940
T1 construct: HA (N); 3TCS (N); expressed in transfected cells; host or cells: HEK-293S cells, transient transfection (PEI max)
T1 sequence (P34972 whole entry Q63R): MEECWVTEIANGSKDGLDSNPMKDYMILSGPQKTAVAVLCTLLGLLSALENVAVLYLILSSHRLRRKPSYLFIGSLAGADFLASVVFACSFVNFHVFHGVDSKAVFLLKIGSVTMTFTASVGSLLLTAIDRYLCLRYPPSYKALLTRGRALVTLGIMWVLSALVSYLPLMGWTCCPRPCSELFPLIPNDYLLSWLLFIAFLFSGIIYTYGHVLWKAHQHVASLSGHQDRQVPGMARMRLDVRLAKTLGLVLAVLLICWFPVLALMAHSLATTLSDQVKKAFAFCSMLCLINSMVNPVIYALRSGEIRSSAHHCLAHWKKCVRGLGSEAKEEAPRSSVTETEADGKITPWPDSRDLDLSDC
Description: (§1) The concentration of DMSO was kept equivalent across all test conditions. All dilutions were dispensed into a 96-well, polypropylene V-bottom plate (Gene Era Biotech, Hangzhou, China). […] All conditions were carried out in technical duplicate. The plate was then sealed, tap-mixed, then incubated at 30 °C for 1 h. A total of 50 µL of 0.1% PEI (Sigma-Aldrich, St. Louis, MI, USA) in MQ water was added to each well of a 96-well GF/C harvest plate (Perkin Elmer) 1 h prior to the harvest. When the incubation finished, vacuum (~5 mmHg) was applied to the harvest plate and wells were washed (50 mM HEPES pH 7.4, 500 mM NaCl, 1 mg/mL BSA, MQ water, ice cold). Subsequently, the contents of the V-bottom plate were transferred to corresponding wells in the harvest plate, wash buffer was used to wash the remaining contents of the V-bottom wells before transferring this to the harvest plate, then the harvest plate was washed an additional three times. The plate was dried for ~24 h at 24 °C. To prepare for reading, the bottom of the plate was sealed, each well received 50 µL of Irgasafe Plus scintillation fluid (Perkin Elmer), followed by sealing the top of the plate. Plates were read in a Wallac MicroBeta® TriLux Liquid Scintillation Counter (Perkin Elmer) with a read time of 2 min/well.
(§2) GraphPad Prism (v8.0.2; GraphPad Software, San Diego, CA, USA) was used to fit nonlinear regression curves (One site—Fit Ki) to the corrected counts per minutes (CCPM) of each displacer to determine their pKi (negative log Ki). […] Mean and SEM of pKi values were calculated from independent experiments. […] CB2 selectivity was calculated as […].

[2] = biological target: T2, human CB1 (Homo sapiens, UniProt P21554); assay: Competition radioligand binding assay ([3H]-CP55,940), hCB1 membranes
T2 construct: pplss (N); 3HA (N); expressed in transfected cells
T2 sequence (P21554 whole entry): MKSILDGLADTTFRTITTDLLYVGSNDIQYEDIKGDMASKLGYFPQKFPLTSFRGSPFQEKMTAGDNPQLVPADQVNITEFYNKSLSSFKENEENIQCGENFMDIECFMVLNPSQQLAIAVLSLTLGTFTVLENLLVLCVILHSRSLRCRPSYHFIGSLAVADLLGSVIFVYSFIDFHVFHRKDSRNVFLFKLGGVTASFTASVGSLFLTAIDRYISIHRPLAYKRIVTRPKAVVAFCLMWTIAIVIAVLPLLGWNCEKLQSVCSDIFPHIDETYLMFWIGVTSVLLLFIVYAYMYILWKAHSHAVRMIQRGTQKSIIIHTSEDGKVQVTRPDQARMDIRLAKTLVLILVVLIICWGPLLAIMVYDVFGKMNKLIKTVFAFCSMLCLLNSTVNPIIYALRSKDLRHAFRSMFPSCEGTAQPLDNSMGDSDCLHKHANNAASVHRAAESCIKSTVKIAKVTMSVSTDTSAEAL
Description: as §1, with “Preparation of hCB1- and hCB2-membranes from a HEK pplss-3HA-hCB1 cell line and HEK Flp-in HA-3TCS-hCB2 63R cell line, respectively, followed the protocol described previously. […] The concentration” for “The concentration”
as §2

[3] = biological target: T1, human CB2; assay: Real-time BRET CAMYEL cAMP biosensor, forskolin-stimulated HEK-293S cells transfected with human CB2; type: cell-based; details: for 2.5 min EC75 concentration (log[compound] M): cAMP assay, calculated from mean EC50 at 2.5 min, Figure S1; for time of peak cAMP response (maximal efficacy): during 20 min stimulation; for cAMP ΔEmax (absolute magnitude percentage decrease from 100%): normalised to V 0% and F 100%
Description: (§3) HEK-293S cells (HEK-S; generously provided by Professor David Poyner, Aston Research Centre, RRID:CVCL_A784 [48]) were maintained in T75 flasks (Corning-Costar) with Dulbecco’s Modified Eagle’s Medium high glucose with phenol red, L-glutamine and sodium pyruvate (DMEM; Cytiva SH30243), and 8% foetal bovine serum (FBS; NZ-origin, Moregate Biotech) at 37 °C in a humidified atmosphere containing 5% CO2.
(§4) Poly-D-Lysine (PDL) (Sigma-Aldrich) at 0.05 mg/mL in PBS was incubated in wells of 96-well Solid White Flat Bottom Polystyrene TC-treated Microplate (Corning-Costar) at 37 °C for 1 h, then washed with PBS prior to seeding and transfection. Cells were seeded at 45,000 cells/well in DMEM supplemented with 12% FBS.
(§5) Plasmids encoding human CB2 (HA-3TCS-hCB2 63R pcDNA5/FRT; 28.5 ng per well) or no receptor (pcDNA5/FRT/CAT; 23.5 ng per well; Thermo Fisher Scientific, Waltham, MA, USA), and either His-CAMYEL (in pcDNA3L; 24 ng per well; ATCC MBA-277; previously described in [49]), or a mix of Rluc8-hβ-arrestin2-Sp1 (in pcDNA3; 0.5 ng per well; previously described in [19]) and Mem-linker-Citrine-SH3 (in pcDNA3; 20 ng per well; previously described in [19, 50]) were diluted in DMEM. Diluted DNA was then co-incubated with polyethyleneimine max (PEI max; Polysciences, Warrington, PA, USA) (Total DNA:PEI ratio of 1:7.5 or 1:6.7 for cAMP or β-arrestin-2 experiments, respectively) in DMEM for 1 h at room temperature (~19–21 °C). These transfection mixes were then added to plated cells, resulting in a final concentration of 8% FBS. Plates were incubated for ~48 h before assaying.
(§6) The protocol for measuring levels of cellular cAMP via real-time BRET biosensor (CAMYEL) is adapted from previous publications. In all cAMP experiments, forskolin (Tocris Bioscience, Bristol, UK) was used to stimulate the activation of adenylyl cyclase to raise intracellular cAMP levels. Vehicle (DMSO) was maintained at an equivalent concentration across all conditions. Assays were carried out in technical duplicate. Then, ~48 h post-transfection, plating media was aspirated, and wells were washed with H+B, consisting of HBSS (Life Technologies) and 1 mg/mL BSA (ICPbio). H+B was then added to the wells to initiate a 30 min serum starve at 37 °C. Post-serum starve, coelenterazine h (final concentration 5 μM, NanoLight Technologies, Norman, OK, USA, #301) was added to the wells, and a 5 min pre-reading was conducted using the LUMIstar® Omega luminometer (Rluc and YFP emissions detected at 460 nm and 535 nm, respectively; BMG Labtech, Ortenberg, Germany). Next, forskolin (final concentration 5 μM) was added to all wells (except vehicle-only wells which received DMSO), and plate reading resumed for 5 min. Lastly, CB2 compounds of interest with forskolin, vehicle with forskolin, or vehicle without forskolin, were added to their respective wells, and a final 20 min read was conducted. All compounds and reagents were diluted in H+B prior to addition to the plate. For β-arrestin-2 recruitment assays, an equivalent procedure was followed except no forskolin was included in the assay stimulations.
(§7) BRET ratios were calculated by dividing YFP emissions by Rluc emissions, then for the cAMP assay, normalised to the mean of baseline ratio reads (where only coelenterazine h was present) to eliminate any variability present prior to drug addiction. An increase in BRET ratio indicated a decrease in cAMP levels or increase in β-arrestin-2 recruitment. Lowess smoothing (GraphPad Prism) was applied to individual technical replicates within an assay. Concentration response curves for the mean of technical replicates (CRC; “log(agonist) vs. response (three parameters)” nonlinear regression curve model, Hill slope constrained to 1) were drawn for the mean ratios over 20 min stimulation or individual time-points.

[4] = biological target: T1, human CB2; assay: Real-time BRET β-arrestin-2 plasma membrane translocation, HEK-293S cells transfected with human CB2; type: cell-based; details: for β-arrestin-2 translocation ΔEmax (% increase above V): normalised to vehicle 100%
Description: as §3, §4, §5, §6, §7

[5] = tested on: CB2; parameters: method as in PMID 31024316; details: cited from earlier work
[6] = biological target: CB2; parameters: method as in PMID 22444677; details: error not shown; cited from earlier work
[7] = tested on: CB2; parameters: method as in PMID 22444677; details: error not shown; cited from earlier work; remark: listed apart in the source
[8] = parameters: method as in PMID 22444677, PMID 25721168; details: cited from earlier work
[9] = tested on: rodents; parameters: method as in PMID 22444677, PMID 25721168; details: cited from earlier work
[10] = tested on: atopic dermatitis; parameters: method as in PMID 22444677, PMID 25721168; details: informally reported; cited from earlier work
[11] = mean over 20 min stimulation, 5 μM forskolin

SMILES	Ki [1]	CB2/CB1 Selectivity [1]	displacement of [3H]-CP55,940 from CB2 [1]	Ki [2]	EC50 [3]	2.5 min EC75 concentration (log[compound] M) [3]	time of peak cAMP response (maximal efficacy) ([3]; 5 μM forskolin)	decrease in cAMP pEC50 in comparison with CP55,940 ([3]; mean over 20 min stimulation)	cAMP ΔEmax (absolute magnitude percentage decrease from 100%) [3, 11]	EC50 [4]	β-arrestin-2 translocation ΔEmax (% increase above V) ([4]; mean over 20 min stimulation)	other results
CCc1c(C)cc(C(=O)NC2(C(=O)NCCOCCOCCOCCO)CCCCC2)c(=O)n1Cc1ccc(F)cc1 [UOSS76]	813 nM	~40	fully displaced	~29500 nM	100 nM	-6.9 log M	around 4.5 min	~ 1.0 log units	26.1 ± 3.6%	631 nM	7.9 ± 1.2%	reduction of CB2 pKi vs. UOSS77 ([1]; p = 0.015): 0.6 log units; decrease of cAMP response potency during the early phase of stimulation ([3]; not significant vs 4.5 min): ~ 0.7 log units; smaller β-arrestin-2 pEC50 than CP55,940 ([4]; mean over 20 min stimulation): ~ 1.0 log units; weaker β-arrestin-2 potency than UOSS77 ([4]; mean over 20 min stimulation): ~ 0.7 log units
Cc1c(C(=O)c2cccc3ccccc23)c2cccc3c2n1[C@H](CN1CCOCC1)CO3 [WIN55,212-2]												agonist type for β-arrestin-2 recruitment to CB2 in comparison with CP55,940 [5]: weak partial agonist
CCc1c(C)cc(C(=O)NC2(C(=O)NCCOCCOCCO)CCCCC2)c(=O)n1Cc1ccc(F)cc1 [UOSS75]	148 nM	~100	fully displaced	~15100 nM	10 nM	-7.6 log M	2.5 min		31.4 ± 3.9%	100 nM	8.5 ± 0.7%	
O=C(N[C@H]1CC[C@@H](O)CC1)c1cc2cccnc2n(CCN2CCOCC2)c1=O [UOMM18]	724 nM	>126		> 100000 nM	63.1 nM	-7.1 log M	2.5 min	~ 0.8 log units	28.0 ± 2.4%	126 nM	7.3 ± 0.6%	CB2 affinity lower than pKd of CP55,940 ([1]; p < 0.0001): ~ 2.5 log units; displacement of [3H]-CP55,940 at CB1 ([2]; highest applied concentration 31.6 µM): did not detectably displace; agonist type for β-arrestin-2 translocation ([4]; relative to CP55,940): partial agonist
CCCCCCC(C)(C)c1ccc([C@@H]2C[C@H](O)CC[C@H]2CCCO)c(O)c1 [CP55,940, reference compound]						-7.3 log M	≤ 2.5 min		35.1% ± 3.5%		17.6% ± 0.8%	increase of cAMP response potency during the acute 5 min period ([3]; not significant vs 2.5 min): ~ 0.5 log units; time to plateau of β-arrestin-2 efficacy ([4]; 20 min stimulation): approximately 5 min; overall increase of β-arrestin-2 response potency during the stimulation ([4]; 20 min stimulation, vs 1.5 min): ~ 0.7 log units
CCc1c(C)cc(C(=O)NC2(C(=O)O)CCCCC2)c(=O)n1Cc1ccc(F)cc1 [UOSS77, reference compound]		~80	fully displaced			-7.6 log M	2.5 min		33.8 ± 5.5%		11.1 ± 0.7%	Ki ([1]; 0.75 nM [3H]-CP55,940, mean (SEM), read-out: CB2 pKi (±SEM) (converted)): 186 nM; Ki ([2]; 0.75 nM [3H]-CP55,940, estimates, incomplete displacement at maximum concentration, read-out: CB1 pKi (±SEM) (converted)): ~15800 nM; EC50 ([3]; mean over 20 min stimulation, 5 μM forskolin, mean ± SEM, read-out: cAMP pEC50 (converted)): 12.6 nM; EC50 ([4]; mean over 20 min stimulation, mean ± SEM, read-out: β-arrestin-2 translocation pEC50 (converted)): 126 nM; CB2 pKi [6]: 7.4; agonism pEC50 (cAMP) [7]: 7.6; oral bioavailability [8]: orally bioavailable; anti-pruritic activity in rodents [9]: shown promise as an anti-pruritic agent; efficacy in Phase 2 clinical trial for atopic dermatitis [10]: ineffective
